What was measured:
IspC = target: T1, IspC (Escherichia coli, UniProt P45568); experiment: Inhibition of the coupling enzyme IspC by BnAP; assay type: biochemical; settings: up to 1.5 mM
T1 sequence (P45568 1-398): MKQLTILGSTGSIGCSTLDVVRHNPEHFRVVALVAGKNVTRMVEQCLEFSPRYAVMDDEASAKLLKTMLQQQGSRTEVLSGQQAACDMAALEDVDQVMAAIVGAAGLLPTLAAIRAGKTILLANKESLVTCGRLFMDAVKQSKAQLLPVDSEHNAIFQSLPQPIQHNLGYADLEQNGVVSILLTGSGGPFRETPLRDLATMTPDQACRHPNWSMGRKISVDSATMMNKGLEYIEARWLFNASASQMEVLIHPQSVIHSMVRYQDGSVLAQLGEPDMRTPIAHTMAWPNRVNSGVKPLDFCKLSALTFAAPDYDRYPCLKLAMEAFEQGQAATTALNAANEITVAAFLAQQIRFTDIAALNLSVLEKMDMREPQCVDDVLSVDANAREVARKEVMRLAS

E. coli DXP synthase = target: T2, E. coli DXP synthase (Escherichia coli, UniProt P77488); assay type: biochemical; settings: 100 mM HEPES pH 8.0, 10-20 mM pyruvate, 10% DMSO, 37 °C; average ± SEM, triplicate
T2 sequence (P77488 1-620): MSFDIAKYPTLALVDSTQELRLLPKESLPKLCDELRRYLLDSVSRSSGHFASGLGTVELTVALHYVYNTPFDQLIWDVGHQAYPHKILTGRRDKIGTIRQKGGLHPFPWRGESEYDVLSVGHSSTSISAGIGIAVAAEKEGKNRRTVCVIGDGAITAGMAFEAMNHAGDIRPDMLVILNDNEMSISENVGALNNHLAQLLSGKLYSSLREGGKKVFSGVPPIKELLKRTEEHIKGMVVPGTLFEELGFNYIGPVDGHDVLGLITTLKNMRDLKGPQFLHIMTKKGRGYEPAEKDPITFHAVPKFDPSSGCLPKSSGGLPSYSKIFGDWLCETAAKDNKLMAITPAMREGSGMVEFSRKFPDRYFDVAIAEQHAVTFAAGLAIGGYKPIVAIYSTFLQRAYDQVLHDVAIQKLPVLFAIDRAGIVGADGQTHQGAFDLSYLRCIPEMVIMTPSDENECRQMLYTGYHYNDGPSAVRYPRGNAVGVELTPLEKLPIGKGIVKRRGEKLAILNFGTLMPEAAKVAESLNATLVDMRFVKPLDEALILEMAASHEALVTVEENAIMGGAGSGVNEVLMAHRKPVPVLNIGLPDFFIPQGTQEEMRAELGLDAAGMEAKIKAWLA

Porcine PDH E1 subunit = experiment: Kinetic parameters of nitroso substrates with PDH; assay type: biochemical; settings: read-out: PDH Km; 100 mM HEPES pH 8.0, 10-20 mM pyruvate, 10% DMSO, 37 °C; average ± SEM, triplicate
yeast TK = settings: cited from earlier work
DXP synthase [1] = target: DXP synthase (Escherichia coli, UniProt P77488); settings: 0.5-5 mM nitroso substrate, 10-20 mM pyruvate, 37 °C, HPLC
DXP synthase [2] = target: T3, DXP synthase (Escherichia coli, UniProt P77488); experiment: Aromatic aldehydes as DXP synthase acceptor substrates; assay type: biochemical
T3 sequence (P77488 1-620): T2 sequence (P77488 1-620)

Compound: CC(=O)P(=O)(O)OCc1ccccc1 [BnAP, benzylacetylphosphonate]
- Inhibition of the coupling enzyme (IspC) (IspC): not observed

Compound: O=C[C@H](O)COP(=O)(O)O [D-GAP, D-glyceraldehyde 3-phosphate, reference compound]
- kcat (E. coli DXP synthase): 102 ± 7 min⁻¹

Compound: O=Nc1ccccc1 [Compound 1, nitrosobenzene]
- Km (Porcine PDH E1 subunit): 350 ± 30 µM
- kcat (E. coli DXP synthase): 175 ± 19 min⁻¹

Compound: CN(C)c1ccc(N=O)cc1 [Compound 4]
- Substrate for yeast TK (yeast TK): not a substrate
- Km (Porcine PDH E1 subunit): 408 ± 60 µM
- Km (E. coli DXP synthase): 54 ± 13 µM
- kcat (E. coli DXP synthase): 0.9 ± 0.1 min⁻¹
- Substrate for DXP synthase (turnover) (DXP synthase [1]): is a substrate

Compound: O=Cc1c(O)cc([N+](=O)[O-])cc1[N+](=O)[O-] [2-Hydroxy-4,6-dinitrobenzaldehyde]
- kcat (DXP synthase [2]; aromatic aldehyde as acceptor substrate): 0.35 ± 0.05 min⁻¹
- Km relative to the natural substrate D-GAP (DXP synthase [2]; fold higher than D-GAP): ~ 18 fold

— publication PMC3767973 (Chembiochem : a European journal of chemical biology, 2013)
